Source: patent publication US6667293B1, “Use of cyclodextrins to modulate gene expression with reduced immunostimulatory response” (priority 1995, dated 2003)

What was measured:
[1] = system: immunostimulatory response; details: known from the literature; cited from earlier work
spleen cells of CD1 mice = experiment: Cell cycle analysis of spleen cells from in vivo treated mice; set-up: species or system mouse
Experimental: Male CD1 mice (4-5 weeks, 20-22 g, Charles river, Wilmington, Mass.) were used in this study. The animals were fed with commercial diet and water ad libidum and were kept at the animal facility of the University of Massachusetts Medical Center (Worcester, Mass.). For in vivo studies, phosphorothioate oligonucleotides (final concentration 4 mg/ml) were mixed with 5% of the cyclodextrin HPCD or HECD in sterile PBS, sonicated at 4° C. for 1 hour, followed by incubation at 4° C. overnight. […] After 24 hr (in the case of the phosphorothioate oligonucleotide of SEQ ID NO:4) and 48 hr (in the case of the phosphorothioate oligonucleotide of SEQ ID NO:2), mice were sacrificed and spleens were collected and prepared for further studies. Two or three mice were studied for each condition and analyzed individually.
Spleens from in vivo treated mice were harvested and single cell suspensions were set in culture in RPMI complete medium (10^6 cells/tube in 1 ml RPMI). After 4 hours of culture, cells were washed with FACS buffer and fixed for cell cycle analysis as described above. The experiments were done in duplicate.

spleen of CD1 mice = experiment: Spleen size (spleen weight) after intraperitoneal injection; assay type: in vivo, mouse
Experimental: (§1) Male CD1 mice (4-5 weeks, 20-22 g, Charles river, Wilmington, Mass.) were used in this study. The animals were fed with commercial diet and water ad libidum and were kept at the animal facility of the University of Massachusetts Medical Center (Worcester, Mass.). For in vivo studies, phosphorothioate oligonucleotides (final concentration 4 mg/ml) were mixed with 5% of the cyclodextrin HPCD or HECD in sterile PBS, sonicated at 4° C. for 1 hour, followed by incubation at 4° C. overnight. The phosphorothioate oligonucleotide, either in plain PBS or mixed with cyclodextrin, was injected into mice intraperitoneally, in a volume of 0.25 ml (1 mg/mouse). After 24 hr (in the case of the phosphorothioate oligonucleotide of SEQ ID NO:4) and 48 hr (in the case of the phosphorothioate oligonucleotide of SEQ ID NO:2), mice were sacrificed and spleens were collected and prepared for further studies. Two or three mice were studied for each condition and analyzed individually.

CD1 mice = experiment: Toxicity observation after intraperitoneal injection; assay type: in vivo, mouse; details: i.p. 50 mg/Kg
Experimental: as §1
Similar experiments were performed with the phosphorothioate oligonucleotide of SEQ ID NO:4. […] In order to reduce the toxicity, 25 mg/Kg of the phosphorothioate oligonucleotide of SEQ ID NO:4 was injected into the animals.

[2] = system: spleen lymphocytes of CD1 mice; experiment: Immunoglobulin synthesis (IgG/IgM ELISA) by spleen cells of in vivo treated mice; set-up: species or system mouse
Experimental: as §1
Spleens from in vivo treated mice were harvested and single cell suspensions were set in culture at a density of 10^6 cells/ml, in 1 ml RPMI complete medium. […] The optical density (405 nm) was measured using an automatic ELISA plate reader (Bio-Tek Instruments, Inc). IgG and IgM levels were calculated based on the standard curve. […]

mouse splenocytes = experiment: Splenic cell proliferation assay, [3H]-thymidine incorporation; assay type: cell-based; details: for cell proliferation ([3H]-thymidine incorporation): oligonucleotide alone, FIG. 1 / FIG. 3 (SEQ ID NO:4 at 1 or 10 μg/ml)
Experimental: Mouse spleen was taken from male CD1 mouse (4-5 weeks, Charles River, Wilmington, Mass.). Single cell suspensions were prepared by gently mincing with frosted ends of glass slides, washed twice, and then resuspended in RPMI complete medium [RPMI 1640 medium supplemented with 10%-heat inactivated (56° C. for 30 minutes) fetal bovine serum, 2 mM glutamine, 100 μg/ml streptomycin, 100 U/ml penicillin, and 50 μM 2-mercaptoethanol]. The cells were then plated in 96-well dishes at a density of 10^6 cells/ml, in a final volume of 100 μl. Oligonucleotides were added to the cell culture in 10 μl of TE buffer (10 mM Tris-HCL pH 7.5, 1 mM EDTA). Cyclodextrin analogs: 2-hydroxypropyl-βcyclodextrin (HPCD, degree of substitution 5-8), hydroxyethyl-β cyclodextrin (HECD, degree of substitution 15), and Encapsin (which is a mixture of hydroxypropyl β-cyclodextrin but has a different degree of substitution, 17.8), were purchased pyrogen free (Amaizo, Hammond, Ind.) and were added to the cells at concentration of 0.5% in RPMI medium except where indicated. Cells were then set to culture in a 37° C., 5% CO2-[…], humidified air incubator for further studies. The experiments were done in triplicate.
After 44 hours, cells were pulsed-labeled with 1 μCi [^3H]-thymidine/well (in 20 μl of RPMI medium) for 4 hours. Cells were then harvested by an automatic cell harvester (Skatron, Sterling, Va.) and the filters were counted using a scintillation counter. […] All the three cyclodextrin analogs reduced cell proliferation to similar levels.

HIV-1 = details: background statement; cited from earlier work
[3] = system: murine splenic lymphocytes; experiment: Cell cycle analysis, in vitro (propidium iodide flow cytometry); assay type: cell-based, mouse; details: 48 hours, oligonucleotide 10 μg/ml, cyclodextrin 0.5%
[4] = i.p. 1 mg/mouse (50 mg/Kg), 48 hr

SEQ ID NO:3: phosphorothioate oligonucleotide that binds to the human p53 oncogene (CCCTGCTCCCCCCTGGCTCC; all phosphorothioate, sugars by position and methylation of C not given here)
immunostimulatory effect [1]: does not induce an immunostimulatory effect

SEQ ID NO:4: phosphorothioate oligonucleotide, 20-mer that contains multiple 5′-CG-3′ motifs (GAGAACGCTCGACCTTCGAT; all phosphorothioate, sugars by position and methylation of C not given here)
% cells in G0/G1 (spleen cells of CD1 mice; i.p. 25 mg/Kg, 24 hr): 68.5 ± 0.5%
% cells in G2/S (spleen cells of CD1 mice; i.p. 25 mg/Kg, 24 hr): 22.7 ± 0.5%
Increase (cells in G2/S compared with PBS) (spleen cells of CD1 mice; i.p. 25 mg/Kg, 24 hr): 41%
stimulation of cell proliferation (cell cycle analysis) (spleen cells of CD1 mice; i.p. 25 mg/Kg, 24 hr): stimulated cell proliferation
splenomegaly / spleen weight (spleen of CD1 mice; SEQ ID NO:4 i.p., 24 hr, FIG. 6): induced splenomegaly
toxicity observation (CD1 mice): noticeable bloody exudate and congestion in abdominal cavities
increase in production of IgG and IgM antibodies ([2]; SEQ ID NO:4, FIG. 7): approximately 10 fold
cell proliferation ([3H]-thymidine incorporation) (mouse splenocytes): dramatic increase in cell proliferation
immunostimulatory effect [1]: induce an immunostimulatory response both in vitro and in vivo

SEQ ID NO:2: phosphorothioate oligodeoxynucleotide complementary to the rev region of HIV-1; induces an immunostimulatory response (TCGTCGCTGTCTCCGCTTCTTCTTGCC; DNA, all phosphorothioate, methylation of C not given here)
% cells in G0/G1 (spleen cells of CD1 mice; [4]): 82.0 ± 1.2%
% cells in G2/S (spleen cells of CD1 mice; [4]): 18.0 ± 1.2%
HIV-1 replication (HIV-1): inhibit HIV-1 replication
% cells in G0/G1 [3]: 77.7 ± 1.0%
% cells in G2/S [3]: 22.3 ± 1.0%
Increase (cells in S/G2 phases compared with medium alone) [3]: 44.8%
spleen weight relative to PBS-treated mice (spleen of CD1 mice; i.p. 1 mg/mouse, 48 hr, FIG. 4): about 1.5 times
production of IgG and IgM ([2]; SEQ ID NO:2, 48 hours after injection, FIG. 5): highly significant increase
change in [3H] thymidine incorporation (mouse splenocytes; 0.1 μg/ml oligonucleotide, FIG. 1): no significant change
cell proliferation ([3H]-thymidine incorporation) (mouse splenocytes): increases cell proliferation in a concentration-dependent manner

2-hydroxypropyl-β-cyclodextrin [HPCD]
spleen weight compared to PBS-treated mice (spleen of CD1 mice; 5% HPCD alone): no effect on spleen weight
